Assay results published in US20240216321A1, “FERMENTATIVELY-PRODUCED RETINOID CONTAINING COMPOSITIONS, AND THE METHDOS OF MAKING AND USING THE SAME” (DSM IP Assets B.V., priority 2022, published 2024).

Key:
Cutibacterium acnes = assay: Antimicrobial efficacy test in analogy to challenge test NF EN ISO11930; format: cell-based; settings: for 24 hr count (remaining population) / Δ R (change from initial inoculum count to 24-hour count): initial inoculum count 100,000, 22° C.; for reduction of Cutibacterium acnes: stated as reduction
Description: (§1) The antimicrobial efficacy of retinol and retinyl acetate having different cis/trans ratio has been assessed in analogy to the regulatory challenge test method (NF EN ISO11930). Thus, solutions of the respective retinol and retinyl acetate mixtures (reference samples and inventive mixtures with a purity of about 98%) were prepared in physiological serum with 0.85 wt.-% NaCl under sterile conditions. The presence of cis and trans-isomers in the retinoid component were calculated by reversed phase C4 HPLC analysis, with the total cis-isomer content in the retinoid component, relative to the total weight of trans-isomers in the retinoid component detected, is reported in Table 4 below along the row labelled “cis/trans ratio”. Also reported for each sample was the specific retinoid used as the retinoid component (either retinyl acetate or retinol for all samples). The solutions of the active(s) were then deposed in 96-deep well plates (1.6 ml/well) at a concentration as specified by wt. % in Table 4 below. The wells were contaminated with Cutibacterium acnes, Corynebacterium xerosis, and Malassezia furfur, respectively, to obtain the initial contamination. The initial contamination count, which is listed as “initial inoculum count” for each test as indicated in Tale 4 below, was determined to be 100,000. After contamination, each well was thoroughly mixed to ensure a homogeneous distribution of the microbes. Then each plate was incubated at 22° C. for 24 h. The counting of the (remaining) population was carried out 24 hours after contamination, as indicated below in Table 4 by the rows labelled “24 hr”. The change in count from the initial inoculum count to the 24-hour count (in terms of percentage) is reflected in the Table below by the rows labelled “A R”.

Corynebacterium xerosis = assay: as above; format: cell-based; settings: initial inoculum count 100,000, 22° C.
Description: as §1

Malassezia furfur = assay: as above; format: cell-based; settings: concentration 0.25%, initial inoculum count 100,000, 22° C.
Description: as §1

[1] = format: physicochemical
Description: Retinoid quantification: Analysis of retinoids were carried out with a C4 reverse phase retinoid method (see below). The addition of all added intermediates gives the total amount of retinoids.
C4 reverse phase chromatography. For exact determination of discrete retinoids, the long run reverse phase system was used. Analytes were separated using the Agilent 1290 instrument with YMC Pro C4, 150×3.0 mm, 3 um column (YMC America, Allentown PA) stationary phase, and a 5 μl injection loop volume and column and sample tray controlled at 23° C. with gradients described in Table B. Analytes were detected at 210, 230 nm and 325 nm and the peak's identity was verified with LCMS. The analytes were separated as discrete peaks that were assigned according to the table below. […]
To determine oxidative stability of examples 1-5, each sample, the preparation of which is described above, was placed under ambient conditions (20° C. and 50% relative humidity preferred) in its own small brown glass vial, blanketed with argon, and put into an oven preheated to 105° C. Thereafter, the samples remained in the oven for 3 hours. After three hours the samples were taken out of the oven and analyzed via the same method(s) utilized to determine “initial” values as reported in Table 1 above. The values for each component were measured after the thermal stress test and compared to the values determined prior to the test. For clarity, example 1 indicated a total retinoid component (see row in Table 1 above labelled “all retinyl acetate (all species)”) prior to the thermal stress test of 90.53%; the change indicated in Table 2 of −1.31% below signifies that the total retinoid component determined after the thermal stress test was 89.22% (by weight relative to the entire sample weight).

[2] = 105° C. for 3 hours, blanketed with argon, change vs value before test

Row | Compound | 24 hr count (remaining population) (Cutibacterium acnes; concentration 0.1%) | Δ R (change from initial inoculum count to 24-hour count) (Cutibacterium acnes; concentration 0.1%) [%] | reduction of Cutibacterium acnes (Cutibacterium acnes; retinyl acetate mixtures) | 24 hr count (remaining population) (Corynebacterium xerosis; concentration 0.1%) | Δ R (change from initial inoculum count to 24-hour count) (Corynebacterium xerosis; concentration 0.1%) [%] | 24 hr count (remaining population) (Corynebacterium xerosis; concentration 0.25%) | Δ R (change from initial inoculum count to 24-hour count) (Corynebacterium xerosis; concentration 0.25%) [%] | 24 hr count (remaining population) (Malassezia furfur) | Δ R (change from initial inoculum count to 24-hour count) (Malassezia furfur) [%] | 24 hr count (remaining population) (Cutibacterium acnes; concentration 0.25%) | Δ R (change from initial inoculum count to 24-hour count) (Cutibacterium acnes; concentration 0.25%) [%] | other results
1 | CC(=O)OC/C=C(C)/C=C/C=C(C)/C=C/C1=C(C)CCCC1(C)C [Ex. 9, Retinyl acetate] | 70,000 | −30 | about 30% | 70,000 | −30 | 10,000 | −90 | – | – | – | – | –
2 | CC1=C(/C=C/C(C)=C/C=C/C(C)=C/CO)C(C)(C)CCC1 [Ex. 11, Retinol] | – | – | – | – | – | – | – | 40,000 | −60 | 700 | −99.3 | reduction of Cutibacterium acnes (Cutibacterium acnes; retinol compositions): 99.3%
3 | CC1=C(/C=C/C(C)=C/C=C/C(C)=C/CO)C(C)(C)CCC1 [Ex. 10, Retinol] | – | – | – | – | – | – | – | 100,000 | 0 | 1,000 | −99 | –
4 | CC(=O)OC/C=C(C)/C=C/C=C(C)/C=C/C1=C(C)CCCC1(C)C [Example 5, retinyl acetate] | – | – | – | – | – | – | – | – | – | – | – | 9Z-retinal, % change [1, 2]: 0.00%; Dihydro-actinidiole, % change [1, 2]: −0.01%; Dihydro-retinol, % change [1, 2]: 0.00%; E-Retinal, % change [1, 2]: −0.01%; E-retinol, % change [1, 2]: −0.01%; Retinyl acetate (all species), % change [1, 2]: −5.50%; Z-retinol, % change [1, 2]: −0.04%; cis-retinyl acetate, % change [1, 2]: −0.22%; Ethanol, % change ([1]; 105° C. for 3 hours, blanketed with argon, change vs value before test (wt. % of entire composition)): 0.00%; reduction in retinyl acetate (loss of retinyl acetate content) after heat stability test ([1]; 3 h): 5.50%
5 | CC(=O)OC/C=C(C)/C=C/C=C(C)/C=C/C1=C(C)CCCC1(C)C [Ex. 8, Retinyl acetate] | 70,000 | −30 | about 30% | 70,000 | −30 | 37,000 | −63 | – | – | – | – | –
6 | CC(=O)OC/C=C(C)/C=C/C=C(C)/C=C/C1=C(C)CCCC1(C)C [Ex. 7, Retinyl acetate] | 370,000 | 270 | – | 370,000 | 270 | 40,000 | −60 | – | – | – | – | –
